Assay results as given in patent US20070191459A1, “Use of Benzo-Heteroaryl Sulfamide Derivatives for Lowering Lipids and Lowering Blood Glucose Levels” (priority 2006, published 2007).

System: db/db mice
Experiment: Diabetic db/db Mouse In Vivo Assay
Details: female db/db mice
Excerpt: Db/db mice are known in the art to be susceptible to Type II diabetes (Sharma K, McCue P, Dunn S R. Am J Physiol Renal Physiol. 2003 June; 284(6):F1138-44). The Db/db mice are also known in the art to be a useful model for dylipidemia.
Female db/db mice (C57BL/6J-Lep^db/db, Jackson Laboratories, Bar Harbor, Me., USA) were received at 8 weeks of age and single-housed and fed with regular chow diet. Blood was collected by tail puncture and glucose was monitored with a glucometer (OneTouch Basic, Lifescan, Newtown, Pa.).
Mice at 10 weeks of age were randomized into treatment groups based on glucose values (first criterion, average of 250 mg/dl) and body weight (second criterion, average of 37 gram). The mice were orally gavaged once daily (0.2 ml at 1500-1700 hour) with vehicle control (0.5% methylcellulose, pH7.4) and vehicle containing test compound (300 mg/kg). On day 11, the mice were fasted for 4 hr during light cycle (food was removed 0600-1000 hour) and blood glucose levels were measured through tail puncture with a glucometer at 1000 hour. The mice were then anaesthetized with sodium pentobarbital (1 ml/kg, i.p, Sleepaway, Fort Dodge, Iowa) and blood was drawn via cardiac puncture and collected into heparinized tubes.
White adipose tissue (WAT) (retroperitoneal fat) and skeletal muscle (gastrocnemius and soleus muscle) were dissected and weighed. Plasma samples were obtained by centrifuge at 2,000 g for 15 minutes at 4° C. and subjected to measurement of insulin, HDL cholesterol and triglyceride.
Data shown below are expressed as the mean and standard error calculated using 9-10 mice per treatment group. The 2 tailed Student's t-Tests were used for statistic analysis. All animal studies complied with the guideline of the Institutional Animal Care and Use Committee.

[1] = 300 mg/kg oral gavage once daily, day 11, plasma, mean ± standard error
[2] = 300 mg/kg oral once daily, in words

NS(=O)(=O)NCc1csc2ccccc12 [Compound #1, N-(benzo[b]thien-3-ylmethyl)-sulfamide]
Blood Glucose (300 mg/kg oral gavage once daily, day 11, 4 hr fasted, mean ± standard error, 9-10 mice): 350 ± 19 mg/dL | HDL Cholesterol [1]: 52.6 ± 1.8 mg/dL | Triglycerides [1]: 149.2 ± 15.8 mg/dL | Insulin levels (300 mg/kg oral gavage once daily, day 11, plasma, vehicle 11.9±2.2): 14.6±3.0 | Skeletal Muscle Weight (300 mg/kg oral gavage once daily, day 11, gastrocnemius and soleus muscle, mean ± standard error): 0.155 ± 0.004 g | Retroperitoneal Fat Weight (300 mg/kg oral gavage once daily, day 11, mean ± standard error): 1.29 ± 0.09 g | blood glucose levels as compared to vehicle treated mice [2]: significantly lower | blood triglyceride levels as compared to vehicle treated mice [2]: decreased | plasma HDL cholesterol levels as compared to vehicle treated mice [2]: significantly increased | skeletal muscle mass versus vehicle [2]: increased skeletal muscle mass | fat to lean mass ratio (300 mg/kg oral once daily, versus vehicle, in words): significant decrease
